Molecules are shown by their SMILES.

The values that follow come from publication PMC5218480 (PLoS ONE, 2017).

The test system of this assay is MV-4-11 cells. As to the kind of experiment: Gene expression microarray analysis (Affymetrix PrimeView) and GSEA. Type of assay: cell-based, human. The arrangement: RFU PODN (11730768_x_at) / Fold change /veh PODN (11730768_x_at) / RFU LINC00158 (11744669_a_at) / Fold change /veh LINC00158 (11744669_a_at) / RFU DUSP10 (11751237_a_at) / Fold change /veh DUSP10 (11751237_a_at) / RFU ID3 (11757404_x_at) / Fold change /veh ID3 (11757404_x_at) / RFU PLEKHG5 (11737974_s_at) / Fold change /veh PLEKHG5 (11737974_s_at) / RFU LRRC4B (11730491_at) / Fold change /veh LRRC4B (11730491_at) / RFU GIMAP4 (11747438_a_at) / Fold change /veh GIMAP4 (11747438_a_at) / RFU KRT8 (11758183_x_at) / Fold change /veh KRT8 (11758183_x_at) / RFU CNN1 (11734310_a_at) / Fold change /veh CNN1 (11734310_a_at) / RFU VPS37D (11726825_at) / Fold change /veh VPS37D (11726825_at) / RFU C10orf10 (11716522_x_at) / Fold change /veh C10orf10 (11716522_x_at) / RFU KIR2DL2 /// KIR2DL4 /// KIR2DL5A /// KIR2DL5B /// KIR2DS1 /// KIR2DS2 /// KIR2DS3 /// KIR2DS4 /// KIR3DL3 /// KIR3DL3 /// KIR3DS1 (11738374_at) / Fold change /veh KIR2DL2 /// KIR2DL4 /// KIR2DL5A /// KIR2DL5B /// KIR2DS1 /// KIR2DS2 /// KIR2DS3 /// KIR2DS4 /// KIR3DL3 /// KIR3DL3 /// KIR3DS1 (11738374_at) / RFU C1QL1 (11718748_at) / Fold change /veh C1QL1 (11718748_at) / RFU TMPRSS4 (11747572_a_at) / Fold change /veh TMPRSS4 (11747572_a_at) / RFU HAMP (11756126_x_at) / Fold change /veh HAMP (11756126_x_at) / RFU RNFT2 (11725882_a_at) / Fold change /veh RNFT2 (11725882_a_at) / RFU NR4A2 (11747474_a_at) / Fold change /veh NR4A2 (11747474_a_at) / RFU ABCC12 (11746883_a_at) / Fold change /veh ABCC12 (11746883_a_at) / RFU TMEM136 (11760407_x_at) / Fold change /veh TMEM136 (11760407_x_at) / RFU CLDN22 /// WWC2 (11732394_at) / Fold change /veh CLDN22 /// WWC2 (11732394_at) / RFU HLA-DPB1 (11760878_x_at) / Fold change /veh HLA-DPB1 (11760878_x_at) / RFU SPINT1 (11716480_a_at) / Fold change /veh SPINT1 (11716480_a_at) / RFU GAP43 (11754022_s_at) / Fold change /veh GAP43 (11754022_s_at) / RFU A4GNT (11735810_at) / Fold change /veh A4GNT (11735810_at) / RFU PRB3 (11715151_x_at) / Fold change /veh PRB3 (11715151_x_at) / RFU TUBB4B (11761932_at) / Fold change /veh TUBB4B (11761932_at) / RFU CAPN14 (11732068_a_at) / Fold change /veh CAPN14 (11732068_a_at) / RFU TMCC2 (11721928_a_at) / Fold change /veh TMCC2 (11721928_a_at) / RFU IRGQ (11745062_a_at) / Fold change /veh IRGQ (11745062_a_at) / RFU FAM174B (11720279_a_at) / Fold change /veh FAM174B (11720279_a_at) / RFU TMPRSS4 (11748680_a_at) / Fold change /veh TMPRSS4 (11748680_a_at) / RFU FAM212B (11763350_a_at) / Fold change /veh FAM212B (11763350_a_at) / RFU PLEKHG5 (11743358_a_at) / Fold change /veh PLEKHG5 (11743358_a_at) / RFU ZSCAN30 (11745921_a_at) / Fold change /veh ZSCAN30 (11745921_a_at) / RFU CMKLR1 (11741424_a_at) / Fold change /veh CMKLR1 (11741424_a_at) / RFU LOC101060620 /// MAPK8IP1 (11723275_at) / Fold change /veh LOC101060620 /// MAPK8IP1 (11723275_at) / RFU SPTSSB (11747773_x_at) / Fold change /veh SPTSSB (11747773_x_at) / RFU PRSS12 (11739890_at) / Fold change /veh PRSS12 (11739890_at) / RFU BIN1 (11741810_x_at) / Fold change /veh BIN1 (11741810_x_at) / RFU WNT11 (11732464_a_at) / Fold change /veh WNT11 (11732464_a_at) / RFU C10orf10 (11716521_a_at) / Fold change /veh C10orf10 (11716521_a_at) / RFU C5orf56 (11738089_at) / Fold change /veh C5orf56 (11738089_at) / RFU CYB561 (11721691_x_at) / Fold change /veh CYB561 (11721691_x_at) / RFU ANKRD19P (11752326_a_at) / Fold change /veh ANKRD19P (11752326_a_at) / RFU OR2T12 /// OR2T33 /// OR2T8 (11738714_s_at) / Fold change /veh OR2T12 /// OR2T33 /// OR2T8 (11738714_s_at) / RFU VCAN (11748164_a_at) / Fold change /veh VCAN (11748164_a_at) / RFU JSRP1 (11732532_at) / Fold change /veh JSRP1 (11732532_at) / RFU KRTAP10-11 (11738290_x_at) / Fold change /veh KRTAP10-11 (11738290_x_at) / RFU MYO3A (11730013_a_at) / Fold change /veh MYO3A (11730013_a_at) / RFU EBF3 (11725865_a_at) / Fold change /veh EBF3 (11725865_a_at) / RFU CAMK2N1 (11719241_x_at) / Fold change /veh CAMK2N1 (11719241_x_at) / RFU C5orf56 (11738088_a_at) / Fold change /veh C5orf56 (11738088_a_at) / RFU OLFML3 (11715873_a_at) / Fold change /veh OLFML3 (11715873_a_at) / RFU LOC100653217 /// NTM (11731650_a_at) / Fold change /veh LOC100653217 /// NTM (11731650_a_at) / RFU MAPK11 (11762145_a_at) / Fold change /veh MAPK11 (11762145_a_at) / RFU FIZ1 (11724087_x_at) / Fold change /veh FIZ1 (11724087_x_at) / RFU OASL (11726364_x_at) / Fold change /veh OASL (11726364_x_at) / RFU SOX15 (11748057_x_at) / Fold change /veh SOX15 (11748057_x_at) / RFU CD79A (11719716_a_at) / Fold change /veh CD79A (11719716_a_at) / RFU HIST1H1D (11736915_at) / Fold change /veh HIST1H1D (11736915_at) / RFU CASKIN2 (11723855_a_at) / Fold change /veh CASKIN2 (11723855_a_at) / RFU LOC730098 (11760151_x_at) / Fold change /veh LOC730098 (11760151_x_at) / RFU OR4N2 (11742367_at) / Fold change /veh OR4N2 (11742367_at) / RFU PRRT2 (11749266_a_at) / Fold change /veh PRRT2 (11749266_a_at) / RFU SNX32 (11753110_a_at) / Fold change /veh SNX32 (11753110_a_at) / RFU CDHR5 (11726645_a_at) / Fold change /veh CDHR5 (11726645_a_at) / RFU RCAN1 (11760418_a_at) / Fold change /veh RCAN1 (11760418_a_at) / RFU FAM167A (11723789_a_at) / Fold change /veh FAM167A (11723789_a_at) / RFU FAM26E (11764081_at) / Fold change /veh FAM26E (11764081_at) / RFU ISYNA1 (11749810_s_at) / Fold change /veh ISYNA1 (11749810_s_at) / RFU ACY1 (11761880_at) / Fold change /veh ACY1 (11761880_at) / RFU 11764098_at / Fold change /veh 11764098_at / RFU SAMD14 (11745864_x_at) / Fold change /veh SAMD14 (11745864_x_at) / RFU NPB (11741838_a_at) / Fold change /veh NPB (11741838_a_at) / RFU TMPRSS6 (11731388_a_at) / Fold change /veh TMPRSS6 (11731388_a_at) / RFU KRTAP10-2 (11738614_at) / Fold change /veh KRTAP10-2 (11738614_at) / RFU ARHGAP8 /// PRR5-ARHGAP8 (11727945_x_at) / Fold change /veh ARHGAP8 /// PRR5-ARHGAP8 (11727945_x_at) / RFU KRTAP5-7 /// NADSYN1 (11734609_at) / Fold change /veh KRTAP5-7 /// NADSYN1 (11734609_at) / RFU RASL12 (11751679_a_at) / Fold change /veh RASL12 (11751679_a_at) / RFU CDKN2B (11736163_a_at) / Fold change /veh CDKN2B (11736163_a_at) / RFU PRF1 (11729649_at) / Fold change /veh PRF1 (11729649_at) / RFU, ZNF638 /// ZNF638-IT1 / Fold change vs veh, ZNF638 /// ZNF638-IT1 / RFU, PANK3 / Fold change vs veh, PANK3 / RFU, SH3YL1 / Fold change vs veh, SH3YL1 / RFU, ZEB2 / Fold change vs veh, ZEB2 / RFU, NRIP1 / Fold change vs veh, NRIP1 / RFU, PTTG1IP / Fold change vs veh, PTTG1IP / RFU, CAPN2 / Fold change vs veh, CAPN2 / RFU, MED14 / Fold change vs veh, MED14 / RFU, SNORA58 / Fold change vs veh, SNORA58 / RFU, C1orf63 / Fold change vs veh, C1orf63 / RFU, LRRFIP1 / Fold change vs veh, LRRFIP1 / RFU, NDUFAF7 / Fold change vs veh, NDUFAF7 / RFU, SLC12A2 / Fold change vs veh, SLC12A2 / RFU, IBTK / Fold change vs veh, IBTK / RFU, ESF1 / Fold change vs veh, ESF1 / Fold change vs veh, TMEM50B / RFU, TAOK1 / Fold change vs veh, TAOK1 / RFU, ACBD3 / Fold change vs veh, ACBD3 / RFU, TMA16 / Fold change vs veh, TMA16 / RFU, RWDD3 / Fold change vs veh, RWDD3 / RFU, BCAT1 / Fold change vs veh, BCAT1 / RFU, EDEM3 / Fold change vs veh, EDEM3 / RFU, TMEM33 / Fold change vs veh, TMEM33 / RFU, WDR75 / Fold change vs veh, WDR75 / RFU, AHCTF1 / Fold change vs veh, AHCTF1 / RFU, TFRC / Fold change vs veh, TFRC / RFU, ZDHHC17 / Fold change vs veh, ZDHHC17 / RFU, NOM1 / Fold change vs veh, NOM1 / RFU, ARL8B / Fold change vs veh, ARL8B / RFU, ZBTB11 / Fold change vs veh, ZBTB11 / RFU, TAMM41 / Fold change vs veh, TAMM41 / RFU, KIAA1704 /// LOC100996395 / Fold change vs veh, KIAA1704 /// LOC100996395 / RFU, ING1 / Fold change vs veh, ING1 / RFU, TRMT61B / Fold change vs veh, TRMT61B / RFU, FUBP3 / Fold change vs veh, FUBP3 / RFU, TP53 / Fold change vs veh, TP53 / RFU, TNKS2 / Fold change vs veh, TNKS2 / RFU, ZFP14 / Fold change vs veh, ZFP14 / RFU, ACTR2 / Fold change vs veh, ACTR2 / RFU, PPP3R1 / Fold change vs veh, PPP3R1 / RFU, PIK3R1 / Fold change vs veh, PIK3R1 / RFU, HNRNPA1 / Fold change vs veh, HNRNPA1 / RFU, RNF170 / Fold change vs veh, RNF170 / RFU, ZNF28 / Fold change vs veh, ZNF28 / RFU, RNGTT / Fold change vs veh, RNGTT / RFU, OGT / Fold change vs veh, OGT / RFU, BRD1 / Fold change vs veh, BRD1 / RFU, MARS / Fold change vs veh, MARS / RFU, ZNF655 / Fold change vs veh, ZNF655 / RFU, FAHD1 / Fold change vs veh, FAHD1 / RFU, BDP1 / Fold change vs veh, BDP1 / RFU, LRRCC1 / Fold change vs veh, LRRCC1 / RFU, ARID1A / Fold change vs veh, ARID1A / RFU, ZNF146 / Fold change vs veh, ZNF146 / RFU, ZNF330 / Fold change vs veh, ZNF330 / RFU, GPN3 / Fold change vs veh, GPN3 / RFU, C9orf123 / Fold change vs veh, C9orf123 / RFU, N4BP2L2 / Fold change vs veh, N4BP2L2 / RFU, ARFIP1 / Fold change vs veh, ARFIP1 / RFU, FAM179B / Fold change vs veh, FAM179B / RFU, BCL10 / Fold change vs veh, BCL10 / RFU, UHRF1BP1L / Fold change vs veh, UHRF1BP1L / RFU, BET1 / Fold change vs veh, BET1 / RFU, CNOT2 / Fold change vs veh, CNOT2 / RFU, ZNF268 / Fold change vs veh, ZNF268 / Fold change vs veh, ZNF507 / RFU, DGCR2 / Fold change vs veh, DGCR2 / RFU, WDSUB1 / Fold change vs veh, WDSUB1 / Fold change vs veh, HSP90B1 /// MIR3652 / RFU, ADSS / Fold change vs veh, ADSS / RFU, GK / Fold change vs veh, GK / RFU, ZNF148 / Fold change vs veh, ZNF148 / RFU, TAF9 / Fold change vs veh, TAF9 / RFU, SLC1A5 / Fold change vs veh, SLC1A5 / RFU, SLMO2 / Fold change vs veh, SLMO2 / RFU, ABCC4 / Fold change vs veh, ABCC4 / RFU, LOC101060439 /// RAP1B / Fold change vs veh, LOC101060439 /// RAP1B / RFU, RFX7 / Fold change vs veh, RFX7 / RFU, GTPBP10 / Fold change vs veh, GTPBP10 / RFU, CNEP1R1 / Fold change vs veh, CNEP1R1 / RFU, BIVM-ERCC5 /// ERCC5 / Fold change vs veh, BIVM-ERCC5 /// ERCC5 / RFU, ILF3 / Fold change vs veh, ILF3 / RFU 11762660_at / Fold change /veh 11762660_at / RFU VCAN (11757783_s_at) / Fold change /veh VCAN (11757783_s_at) / RFU DDX43 (11728927_at) / Fold change /veh DDX43 (11728927_at) / RFU KRT8 (11758188_x_at) / Fold change /veh KRT8 (11758188_x_at) / RFU NKD1 (11759106_at) / Fold change /veh NKD1 (11759106_at) / RFU SRD5A1 (11742802_a_at) / Fold change /veh SRD5A1 (11742802_a_at) / RFU TPSAB1 /// TPSB2 (11721975_s_at) / Fold change /veh TPSAB1 /// TPSB2 (11721975_s_at) / RFU GSTM3 (11746129_a_at) / Fold change /veh GSTM3 (11746129_a_at) / RFU IL23R (11737362_x_at) / Fold change /veh IL23R (11737362_x_at) / RFU TMEM51 (11727254_a_at) / Fold change /veh TMEM51 (11727254_a_at) / RFU PIWIL2 (11732686_x_at) / Fold change /veh PIWIL2 (11732686_x_at) / RFU ORM1 (11744905_x_at) / Fold change /veh ORM1 (11744905_x_at) / RFU CCDC152 (11743942_at) / Fold change /veh CCDC152 (11743942_at) / RFU ECM1 (11717891_a_at) / Fold change /veh ECM1 (11717891_a_at) / RFU IL23R (11748794_a_at) / Fold change /veh IL23R (11748794_a_at) / RFU TNFAIP8L3 (11732012_x_at) / Fold change /veh TNFAIP8L3 (11732012_x_at) / RFU MBOAT4 (11741988_at) / Fold change /veh MBOAT4 (11741988_at) / RFU 11764193_at / Fold change /veh 11764193_at / RFU TMEM53 (11763286_at) / Fold change /veh TMEM53 (11763286_at) / RFU MAGEB2 (11727129_at) / Fold change /veh MAGEB2 (11727129_at) / RFU TMEM200A (11744735_a_at) / Fold change /veh TMEM200A (11744735_a_at) / RFU CCDC152 (11751479_a_at) / Fold change /veh CCDC152 (11751479_a_at) / RFU FAM211A (11726209_a_at) / Fold change /veh FAM211A (11726209_a_at) / RFU RGS16 (11746705_a_at) / Fold change /veh RGS16 (11746705_a_at) / RFU VCAN (11755009_s_at) / Fold change /veh VCAN (11755009_s_at) / RFU RHOB (11743442_s_at) / Fold change /veh RHOB (11743442_s_at) / RFU RGS16 (11720943_a_at) / Fold change /veh RGS16 (11720943_a_at) / RFU RGS16 (11720944_at) / Fold change /veh RGS16 (11720944_at) / RFU, VPS4B / Fold change vs veh, VPS4B / RFU, CREB1 / Fold change vs veh, CREB1 / RFU, DNAJC13 / Fold change vs veh, DNAJC13 / RFU, GNAQ / Fold change vs veh, GNAQ / RFU, CDK5R1 / Fold change vs veh, CDK5R1 / RFU, ZRANB3 / Fold change vs veh, ZRANB3 / RFU, CUL4A / Fold change vs veh, CUL4A / RFU, CCNY / Fold change vs veh, CCNY / RFU, UFL1 / Fold change vs veh, UFL1 / RFU, COG3 / Fold change vs veh, COG3 / RFU, DIAPH2 / Fold change vs veh, DIAPH2 / RFU, SKA2 / Fold change vs veh, SKA2 / RFU, AFF3 / Fold change vs veh, AFF3 / RFU, LMF1 / Fold change vs veh, LMF1 / RFU, IPO11 / Fold change vs veh, IPO11 / RFU, DFFB / Fold change vs veh, DFFB / RFU, FOXP1 / Fold change vs veh, FOXP1 / RFU, CARD8 / Fold change vs veh, CARD8 / RFU, STRN3 / Fold change vs veh, STRN3 / RFU, ADK / Fold change vs veh, ADK / RFU, RASSF2 / Fold change vs veh, RASSF2 / RFU, WIPF1 / Fold change vs veh, WIPF1 / RFU, LARP1B / Fold change vs veh, LARP1B / RFU, RASA1 / Fold change vs veh, RASA1 / RFU, RB1 / Fold change vs veh, RB1 / RFU, PPFIA1 / Fold change vs veh, PPFIA1 / RFU, MAT2A / Fold change vs veh, MAT2A / RFU, CCT5 / Fold change vs veh, CCT5 / RFU, WDR92 / Fold change vs veh, WDR92 / RFU, CUX1 / Fold change vs veh, CUX1 / RFU, TTC7A / Fold change vs veh, TTC7A / RFU, TMEM135 / Fold change vs veh, TMEM135 / RFU, DEPTOR / Fold change vs veh, DEPTOR / RFU, CPM / Fold change vs veh, CPM / RFU, DNAJB6 / Fold change vs veh, DNAJB6 / RFU, CACNA2D3 / Fold change vs veh, CACNA2D3 / RFU, DTX4 / Fold change vs veh, DTX4 / RFU, TFCP2 / Fold change vs veh, TFCP2 / RFU, GMCL1 /// GMCL1P1 / Fold change vs veh, GMCL1 /// GMCL1P1 / RFU, AEBP2 / Fold change vs veh, AEBP2 / RFU, SNHG1 /// SNORD22 /// SNORD25 /// SNORD26 /// SNORD27 /// SNORD28 /// SNORD29 /// SNORD31 / Fold change vs veh, SNHG1 /// SNORD22 /// SNORD25 /// SNORD26 /// SNORD27 /// SNORD28 /// SNORD29 /// SNORD31 / Fold change (Aza/veh), C12orf56 (ProbeSet 11735607_a_at) / Fold change (ACY-1035/veh), C12orf56 (ProbeSet 11735607_a_at) / Fold change (Aza/veh), FGFR1OP (ProbeSet 11751329_s_at) / Fold change (ACY-1035/veh), FGFR1OP (ProbeSet 11751329_s_at) / Fold change (Aza/veh), VPS36 (ProbeSet 11739960_a_at) / Fold change (ACY-1035/veh), VPS36 (ProbeSet 11739960_a_at) / RFU SYPL1 (11715823_x_at) / Fold change /veh SYPL1 (11715823_x_at) / RFU IGFBP7 (11715501_s_at) / Fold change /veh IGFBP7 (11715501_s_at) / RFU REEP3 (11722064_at) / Fold change /veh REEP3 (11722064_at) / RFU IGLL1 (11728026_x_at) / Fold change /veh IGLL1 (11728026_x_at): dose or concentration left out as unconfirmed. As to conditions: gene VPS36; ACY-1035 vs DMSO; LIST F.

Take `Nc1ccc(-c2cccs2)cc1NC(=O)c1ccc2c(c1)cc(C1CC1)n2CCN1CCOCC1` [ACY-1035]: the “Fold change (ACY-1035/veh), VPS36 (ProbeSet 11739960_a_at)” value was 0.53.
